In the NIST ThermoML archive (doi:10.1021/je200195q):
± gives the expanded uncertainty stated by the source.

Assay: activity coefficient (dimensionless); of the first substance listed, at infinite dilution; xn = mol fraction of the nth substance listed
Conditions: 101 kPa, Liquid, Chromatography, x1 = 0

SMILES: CCCC(C)=O [pentan-2-one] + CCCCn1cc[n+](C)c1.O=S(=O)([N-]S(=O)(=O)C(F)(F)C(F)(F)F)C(F)(F)C(F)(F)F
- activity coefficient (322.55 K): 0.666 ± 0.045
- activity coefficient (342.75 K): 0.686 ± 0.046
- activity coefficient (362.65 K): 0.701 ± 0.047

SMILES: CCCCCCCCCCC [undecane] + CCCCCC[n+]1ccn(C)c1.FC(F)(F)C(F)(F)[P-](F)(F)(F)(C(F)(F)C(F)(F)F)C(F)(F)C(F)(F)F
- activity coefficient (312.8 K): 31 ± 2.1
- activity coefficient (332.85 K): 25.5 ± 1.7
- activity coefficient (354.65 K): 19.9 ± 1.4

SMILES: Cc1ccc(C)cc1 [1,4-dimethylbenzene] + CCCCCCCCCCn1cc[n+](CCCCCCCCCC)c1C.O=S(=O)([N-]S(=O)(=O)C(F)(F)F)C(F)(F)F
- activity coefficient (323.1 K): 0.647 ± 0.044
- activity coefficient (333.15 K): 0.66 ± 0.045
- activity coefficient (343.15 K): 0.657 ± 0.045

SMILES: CCO [ethanol] + CCCCCC[n+]1ccn(C)c1.FC(F)(F)C(F)(F)[P-](F)(F)(F)(C(F)(F)C(F)(F)F)C(F)(F)C(F)(F)F
- activity coefficient (312.8 K): 2.1 ± 0.14
- activity coefficient (332.85 K): 1.69 ± 0.11
- activity coefficient (354.65 K): 1.31 ± 0.085

SMILES: Cc1cccc(C)c1 [1,3-dimethylbenzene] + CCCCCCCCCCn1cc[n+](CCCCCCCCCC)c1C.O=S(=O)([N-]S(=O)(=O)C(F)(F)F)C(F)(F)F
- activity coefficient (323.1 K): 0.645 ± 0.044
- activity coefficient (333.15 K): 0.653 ± 0.045
- activity coefficient (343.15 K): 0.663 ± 0.045

SMILES: CCC=O [propanal] + CCn1cc[n+](C)c1.CS(=O)(=O)[O-]
- activity coefficient (312.55 K): 2.76 ± 0.19
- activity coefficient (322.45 K): 2.71 ± 0.18
- activity coefficient (332.45 K): 2.65 ± 0.18

SMILES: CCCCCCCCC [nonane] + CCCCCCCCCCn1cc[n+](CCCCCCCCCC)c1C.O=S(=O)([N-]S(=O)(=O)C(F)(F)F)C(F)(F)F
- activity coefficient (323.1 K): 3.31 ± 0.23
- activity coefficient (333.15 K): 3.17 ± 0.22
- activity coefficient (343.15 K): 3.45 ± 0.23

SMILES: ClC(Cl)(Cl)Cl [tetrachloromethane] + CCCCn1cc[n+](C)c1.O=S(=O)([N-]S(=O)(=O)C(F)(F)C(F)(F)F)C(F)(F)C(F)(F)F
- activity coefficient (322.55 K): 2.4 ± 0.16
- activity coefficient (342.75 K): 2.35 ± 0.16
- activity coefficient (362.65 K): 2.33 ± 0.16

SMILES: CO [methanol] + CCCCCC[n+]1ccn(C)c1.FC(F)(F)C(F)(F)[P-](F)(F)(F)(C(F)(F)C(F)(F)F)C(F)(F)C(F)(F)F
- activity coefficient (312.8 K): 1.57 ± 0.1
- activity coefficient (332.85 K): 2.01 ± 0.14
- activity coefficient (354.65 K): 1.58 ± 0.1

SMILES: CC1CCCC1 [methylcyclopentane] + CCCCn1cc[n+](C)c1.O=S(=O)([N-]S(=O)(=O)C(F)(F)C(F)(F)F)C(F)(F)C(F)(F)F
- activity coefficient (322.55 K): 6.85 ± 0.47
- activity coefficient (342.75 K): 6.05 ± 0.41
- activity coefficient (362.65 K): 5.79 ± 0.4

SMILES: C[N+](=O)[O-] [nitromethane] + CCCCCCCCCCn1cc[n+](CCCCCCCCCC)c1C.O=S(=O)([N-]S(=O)(=O)C(F)(F)F)C(F)(F)F
- activity coefficient (323.1 K): 0.596 ± 0.042
- activity coefficient (333.15 K): 0.559 ± 0.04
- activity coefficient (343.15 K): 0.536 ± 0.039

SMILES: C=O [methanal] + CCCCCC[n+]1ccn(C)c1.FC(F)(F)C(F)(F)[P-](F)(F)(F)(C(F)(F)C(F)(F)F)C(F)(F)C(F)(F)F
- activity coefficient (312.8 K): 0.096 ± 0.03
- activity coefficient (332.85 K): 0.134 ± 0.029
- activity coefficient (354.65 K): 0.146 ± 0.029

SMILES: CCCCCCCCCCCC [dodecane] + CCCCn1cc[n+](C)c1.O=S(=O)([N-]S(=O)(=O)C(F)(F)C(F)(F)F)C(F)(F)C(F)(F)F
- activity coefficient (322.55 K): 77.8 ± 5.3
- activity coefficient (342.75 K): 62 ± 4.2
- activity coefficient (362.65 K): 50.9 ± 3.5

SMILES: CC(C)CC(C)(C)C [2,2,4-trimethylpentane] + CCCCCC[n+]1ccn(C)c1.FC(F)(F)C(F)(F)[P-](F)(F)(F)(C(F)(F)C(F)(F)F)C(F)(F)C(F)(F)F
- activity coefficient (312.8 K): 7.98 ± 0.54
- activity coefficient (332.85 K): 7.13 ± 0.49
- activity coefficient (354.65 K): 6.18 ± 0.42

SMILES: C1CCCCC1 [cyclohexane] + CCCCCCCCCCn1cc[n+](CCCCCCCCCC)c1C.O=S(=O)([N-]S(=O)(=O)C(F)(F)F)C(F)(F)F
- activity coefficient (323.1 K): 1.32 ± 0.085
- activity coefficient (333.15 K): 1.28 ± 0.083
- activity coefficient (343.15 K): 1.26 ± 0.081

SMILES: CCCCCCCCCCCC [dodecane] + CCCCCC[n+]1ccn(C)c1.FC(F)(F)C(F)(F)[P-](F)(F)(F)(C(F)(F)C(F)(F)F)C(F)(F)C(F)(F)F
- activity coefficient (312.8 K): 39.3 ± 2.7
- activity coefficient (332.85 K): 33.1 ± 2.3
- activity coefficient (354.65 K): 25.7 ± 1.8

SMILES: OCC(F)(F)F [2,2,2-trifluoroethanol] + CCCCCCCCCCn1cc[n+](CCCCCCCCCC)c1C.O=S(=O)([N-]S(=O)(=O)C(F)(F)F)C(F)(F)F
- activity coefficient (323.1 K): 0.399 ± 0.034
- activity coefficient (333.15 K): 0.379 ± 0.033
- activity coefficient (343.15 K): 0.355 ± 0.032

SMILES: CCCCCCCCCC [decane] + CCCCCCCCCCn1cc[n+](CCCCCCCCCC)c1C.O=S(=O)([N-]S(=O)(=O)C(F)(F)F)C(F)(F)F
- activity coefficient (323.1 K): 3.56 ± 0.24
- activity coefficient (333.15 K): 3.46 ± 0.24
- activity coefficient (343.15 K): 3.33 ± 0.23

SMILES: CC(C)CO [2-methyl-1-propanol] + CCCCCC[n+]1ccn(C)c1.FC(F)(F)C(F)(F)[P-](F)(F)(F)(C(F)(F)C(F)(F)F)C(F)(F)C(F)(F)F
- activity coefficient (312.8 K): 2.77 ± 0.19
- activity coefficient (332.85 K): 2.13 ± 0.14
- activity coefficient (354.65 K): 1.62 ± 0.11

SMILES: CCCO [propan-1-ol] + CCn1cc[n+](C)c1.CS(=O)(=O)[O-]
- activity coefficient (312.55 K): 0.742 ± 0.049
- activity coefficient (322.45 K): 0.734 ± 0.049
- activity coefficient (332.45 K): 0.722 ± 0.048

SMILES: c1ccccc1 [benzene] + CCCCCC[n+]1ccn(C)c1.FC(F)(F)C(F)(F)[P-](F)(F)(F)(C(F)(F)C(F)(F)F)C(F)(F)C(F)(F)F
- activity coefficient (312.8 K): 0.517 ± 0.039
- activity coefficient (332.85 K): 0.552 ± 0.04
- activity coefficient (354.65 K): 0.564 ± 0.041

SMILES: C1COCCO1 [1,4-dioxane] + CCn1cc[n+](C)c1.CS(=O)(=O)[O-]
- activity coefficient (312.55 K): 2.67 ± 0.18
- activity coefficient (322.45 K): 2.67 ± 0.18
- activity coefficient (332.45 K): 2.66 ± 0.18

SMILES: C#CCCCC [1-hexyne] + CCCCCC[n+]1ccn(C)c1.FC(F)(F)C(F)(F)[P-](F)(F)(F)(C(F)(F)C(F)(F)F)C(F)(F)C(F)(F)F
- activity coefficient (312.8 K): 1.94 ± 0.13
- activity coefficient (332.85 K): 1.89 ± 0.13
- activity coefficient (354.65 K): 1.75 ± 0.12

SMILES: CCCCO [butan-1-ol] + CCCCCCCCCCn1cc[n+](CCCCCCCCCC)c1C.O=S(=O)([N-]S(=O)(=O)C(F)(F)F)C(F)(F)F
- activity coefficient (323.1 K): 1.38 ± 0.09
- activity coefficient (333.15 K): 1.2 ± 0.077
- activity coefficient (343.15 K): 1.12 ± 0.071

SMILES: Cc1ccccc1C [1,2-dimethylbenzene] + CCCCCC[n+]1ccn(C)c1.FC(F)(F)C(F)(F)[P-](F)(F)(F)(C(F)(F)C(F)(F)F)C(F)(F)C(F)(F)F
- activity coefficient (312.8 K): 0.888 ± 0.057
- activity coefficient (332.85 K): 0.947 ± 0.06
- activity coefficient (354.65 K): 0.957 ± 0.06

SMILES: CC#N [acetonitrile] + CCn1cc[n+](C)c1.CS(=O)(=O)[O-]
- activity coefficient (312.55 K): 1.26 ± 0.081
- activity coefficient (322.45 K): 0.818 ± 0.053
- activity coefficient (332.45 K): 0.836 ± 0.054

SMILES: CCC[N+](=O)[O-] [1-nitropropane] + CCCCn1cc[n+](C)c1.O=S(=O)([N-]S(=O)(=O)C(F)(F)C(F)(F)F)C(F)(F)C(F)(F)F
- activity coefficient (322.55 K): 0.769 ± 0.05
- activity coefficient (342.75 K): 0.821 ± 0.053
- activity coefficient (362.65 K): 0.756 ± 0.05

SMILES: Cc1ccccc1 [toluene] + CCCCn1cc[n+](C)c1.O=S(=O)([N-]S(=O)(=O)C(F)(F)C(F)(F)F)C(F)(F)C(F)(F)F
- activity coefficient (322.55 K): 1.4 ± 0.091
- activity coefficient (342.75 K): 1.42 ± 0.093
- activity coefficient (362.65 K): 1.46 ± 0.096

SMILES: CC(C)O [propan-2-ol] + CCCCn1cc[n+](C)c1.O=S(=O)([N-]S(=O)(=O)C(F)(F)C(F)(F)F)C(F)(F)C(F)(F)F
- activity coefficient (322.55 K): 1.77 ± 0.12
- activity coefficient (342.75 K): 1.46 ± 0.096
- activity coefficient (362.65 K): 1.25 ± 0.08

SMILES: CCc1ccccc1 [ethylbenzene] + CCCCCC[n+]1ccn(C)c1.FC(F)(F)C(F)(F)[P-](F)(F)(F)(C(F)(F)C(F)(F)F)C(F)(F)C(F)(F)F
- activity coefficient (312.8 K): 0.956 ± 0.06
- activity coefficient (332.85 K): 1.03 ± 0.065
- activity coefficient (354.65 K): 1.04 ± 0.066

SMILES: ClC(Cl)Cl [trichloromethane] + CCCCCCCCCCn1cc[n+](CCCCCCCCCC)c1C.O=S(=O)([N-]S(=O)(=O)C(F)(F)F)C(F)(F)F
- activity coefficient (323.1 K): 0.374 ± 0.033
- activity coefficient (333.15 K): 0.395 ± 0.034
- activity coefficient (343.15 K): 0.402 ± 0.034
